Strand notation (5' to 3'): a small letter for the sugar, then the base; units joined by * are phosphorothioate-linked, units joined directly phosphodiester-linked; [ ] holds rarer units or linkages, { } end groups; capitals alone tell only the bases. e = 2'-O-(2-methoxyethyl) (MOE); [5mC] = 5-methylcytosine; d = 2'-deoxy (DNA)
Test system: human PI3K p85 RNA
Test: Inhibition of human PI3K p85 mRNA levels by antisense oligonucleotides, real-time quantitative PCR
Assay type: cell-based
Details: chimeric phosphorothioate oligonucleotides with 2′-MOE wings and deoxy gap, oligonucleotide 150 nM, averaged from two experiments
Description: Cells were harvested 16 hours after oligonucleotide treatment.
Poly(A)+ mRNA was isolated according to Miura et al., Clin. Chem., 1996, 42, 1758-1764. Other methods for poly(A)+ mRNA isolation are taught in, for example, Ausubel, F. M. et al., Current Protocols in Molecular Biology, Volume 1, pp. 4.5.1-4.5.3, John Wiley & Sons, Inc., 1993. […] 60 μL lysis buffer (10 mM Tris-HCl, pH 7.6, 1 mM EDTA, 0.5 M NaCl, 0.5% NP-40, 20 mM vanadyl-ribonucleoside complex) was added to each well, the plate was gently agitated and then incubated at room temperature for five minutes. 55 μL of lysate was transferred to Oligo d(T) coated 96-well plates (AGCT Inc., Irvine Calif.). Plates were incubated for 60 minutes at room temperature, washed 3 times with 200 μL of wash buffer (10 mM Tris-HCl pH 7.6, 1 mM EDTA, 0.3 M NaCl). After the final wash, the plate was blotted on paper towels to remove excess wash buffer and then air-dried for 5 minutes. 60 μL of elution buffer (5 mM Tris-HCl pH 7.6), preheated to 70° C. was added to each well, the plate was incubated on a 90° C. hot plate for 5 minutes, and the eluate was then transferred to a fresh 96-well plate.
PI3K p85 probes and primers were designed to hybridize to the human PI3K p85 sequence, using published sequence information (GenBank accession number M61906, incorporated herein as SEQ ID NO: 1).
Target sites are indicated by nucleotide numbers, as given in the sequence source reference (Genbank accession no. M61906), to which the oligonucleotide binds. All compounds in Table 1 are oligodeoxynucleotides with phosphorothioate backbones (internucleoside linkages) throughout. […] Data are averages from two experiments. If present, “N.D.” indicates “no data”.
In accordance with the present invention, a second series of oligonucleotides targeted to human PI3K p85 were synthesized. Target sites are indicated by nucleotide numbers, as given in the sequence source reference (Genbank accession no. M61906), to which the oligonucleotide binds.
Cytidine residues in the 2′-MOE wings are 5-methylcytidines.
Data were obtained by real-time quantitative PCR as described in other examples herein and are averaged from two experiments. If present, “N.D.” indicates “no data”.

**Q.** For “28022 (antisense eA*eT*eT*eT*dC*dA*dC*dT*dG*dT*dA*dA*dA*dC*eG*eG*e[5mC]*eT) [compound 28022]”, which “% Inhibition of PI3K p85 mRNA levels” value is on record?
**A.** 69%

**Q.** “28032 (antisense eT*eT*eT*e[5mC]*dT*dC*dA*dT*dT*dG*dC*dC*dT*dT*e[5mC]*eA*e[5mC]*eG) [compound 28032]” was tested. Which “% Inhibition of PI3K p85 mRNA levels” value did it give?
**A.** 35%

**Q.** Which “% Inhibition of PI3K p85 mRNA levels” value does the source give for “28026 (antisense eA*eG*eT*eA*dG*dG*dT*dT*dT*dT*dG*dG*dT*dG*eG*eT*eT*eT) [compound 28026]” here?
**A.** 54%

**Q.** For “28045 (antisense eG*e[5mC]*e[5mC]*e[5mC]*dT*dT*dT*dG*dC*dT*dT*dT*dC*dC*eA*eG*eA*eG) [compound 28045]”, which “% Inhibition of PI3K p85 mRNA levels” value is on record?
**A.** 0%

**Q.** Which “% Inhibition of PI3K p85 mRNA levels” value does the source give for “28044 (antisense eA*e[5mC]*eA*eT*dT*dG*dA*dG*dG*dG*dA*dG*dT*dC*eG*eT*eT*eG) [compound 28044]” here?
**A.** 0%

**Q.** With “28052 (antisense eA*eT*eT*e[5mC]*dT*dC*dC*dC*dA*dA*dA*dG*dC*dG*eT*e[5mC]*e[5mC]*e[5mC]) [compound 28052]” as the substance, how does the “% Inhibition of PI3K p85 mRNA levels” value read?
**A.** 55%

**Q.** Which “% Inhibition of PI3K p85 mRNA levels” value does the source give for “28025 (antisense eG*eT*eT*e[5mC]*dA*dT*dT*dC*dC*dA*dT*dT*dC*dA*eG*eT*eT*eG) [compound 28025]” here?
**A.** 22%

**Q.** For “28043 (antisense eA*eA*eA*eG*dC*dC*dA*dT*dA*dG*dC*dC*dA*dG*eT*eT*eG*e[5mC]) [compound 28043]”, which “% Inhibition of PI3K p85 mRNA levels” value is on record?
**A.** 10%

**Q.** With “28037 (antisense eT*eT*eG*e[5mC]*dC*dC*dA*dA*dC*dC*dA*dC*dT*dC*eG*eT*eT*e[5mC]) [compound 28037]” as the substance, how does the “% Inhibition of PI3K p85 mRNA levels” value read?
**A.** 28%

**Q.** Which “% Inhibition of PI3K p85 mRNA levels” value does the source give for “28017 (antisense eA*eT*e[5mC]*eT*dT*dC*dT*dT*dC*dT*dC*dT*dT*dT*e[5mC]*e[5mC]*eT*eT) [compound 28017]” here?
**A.** 59%

**Q.** “28024 (antisense eG*eG*e[5mC]*eT*dG*dC*dT*dG*dA*dG*dA*dA*dT*dC*eT*eG*eA*eA) [compound 28024]” was tested. Which “% Inhibition of PI3K p85 mRNA levels” value did it give?
**A.** 59%

**Q.** “28050 (antisense eT*eG*eT*e[5mC]*dT*dG*dG*dG*dT*dC*dC*dA*dC*dC*eG*eT*eG*e[5mC]) [compound 28050]” was tested. Which “% Inhibition of PI3K p85 mRNA levels” value did it give?
**A.** 57%

**Q.** “28027 (antisense eT*eT*eA*eT*dT*dC*dA*dT*dA*dC*dC*dG*dT*dT*eG*eT*eT*eG) [compound 28027]” was tested. Which “% Inhibition of PI3K p85 mRNA levels” value did it give?
**A.** 45%

**Q.** How did the “% Inhibition of PI3K p85 mRNA levels” value turn out when “28040 (antisense e[5mC]*e[5mC]*eT*eG*dT*dT*dT*dA*dC*dT*dG*dC*dT*dC*eT*e[5mC]*e[5mC]*e[5mC]) [compound 28040]” was run?
**A.** 0%

**Q.** Which “% Inhibition of PI3K p85 mRNA levels” value does the source give for “28041 (antisense e[5mC]*e[5mC]*eA*e[5mC]*dC*dA*dC*dT*dA*dC*dA*dG*dA*dG*e[5mC]*eA*eG*eG) [compound 28041]” here?
**A.** 38%

**Q.** For “28036 (antisense eT*e[5mC]*eA*eA*dC*dT*dT*dC*dT*dT*dT*dT*dG*dC*e[5mC]*eG*eA*eA) [compound 28036]”, which “% Inhibition of PI3K p85 mRNA levels” value is on record?
**A.** 59%

**Q.** Which “% Inhibition of PI3K p85 mRNA levels” value does the source give for “28031 (antisense e[5mC]*e[5mC]*eG*e[5mC]*dT*dC*dT*dT*dG*dG*dG*dT*dC*dT*eG*eG*e[5mC]*eA) [compound 28031]” here?
**A.** 15%

**Q.** “28048 (antisense e[5mC]*eT*eG*e[5mC]*dC*dT*dC*dT*dC*dT*dC*dT*dC*dC*eT*e[5mC]*e[5mC]*eG) [compound 28048]” was tested. Which “% Inhibition of PI3K p85 mRNA levels” value did it give?
**A.** 0%

Same assay, conditions: phosphorothioate oligodeoxynucleotides, oligonucleotide 150 nM, averages from two experiments

**Q.** How did the “% Inhibition of PI3K p85 mRNA levels” value turn out when “27985 (antisense GTTCATTCCATTCAGTTG; DNA, all phosphorothioate, methylation of C not given here) [compound 27985]” was run?
**A.** 13%

**Q.** Which “% Inhibition of PI3K p85 mRNA levels” value does the source give for “28000 (antisense CCTGTTTACTGCTCTCCC; DNA, all phosphorothioate, methylation of C not given here) [compound 28000]” here?
**A.** 20%

**Q.** How did the “% Inhibition of PI3K p85 mRNA levels” value turn out when “28009 (antisense CCAGGCTAAACCAGGCTG; DNA, all phosphorothioate, methylation of C not given here) [compound 28009]” was run?
**A.** 57%

**Q.** How did the “% Inhibition of PI3K p85 mRNA levels” value turn out when “28008 (antisense CTGCCTCTCTCTCCTCCG; DNA, all phosphorothioate, methylation of C not given here) [compound 28008]” was run?
**A.** 0%

**Q.** For “28011 (antisense GACGTGCCTTTCTGCTAC; DNA, all phosphorothioate, methylation of C not given here) [compound 28011]”, which “% Inhibition of PI3K p85 mRNA levels” value is on record?
**A.** 28%

**Q.** How did the “% Inhibition of PI3K p85 mRNA levels” value turn out when “27979 (antisense TTCAATGGCTTCCACGAG; DNA, all phosphorothioate, methylation of C not given here) [compound 27979]” was run?
**A.** 6%

**Q.** Which “% Inhibition of PI3K p85 mRNA levels” value does the source give for “28010 (antisense TGTCTGGGTCCACCGTGC; DNA, all phosphorothioate, methylation of C not given here) [compound 28010]” here?
**A.** 55%

**Q.** With “27997 (antisense TTGCCCAACCACTCGTTC; DNA, all phosphorothioate, methylation of C not given here) [compound 27997]” as the substance, how does the “% Inhibition of PI3K p85 mRNA levels” value read?
**A.** 55%

**Q.** With “27983 (antisense GCTTGAAGAAATGTTTTA; DNA, all phosphorothioate, methylation of C not given here) [compound 27983]” as the substance, how does the “% Inhibition of PI3K p85 mRNA levels” value read?
**A.** 0%

**Q.** With “28005 (antisense GCCCTTTGCTTTCCAGAG; DNA, all phosphorothioate, methylation of C not given here) [compound 28005]” as the substance, how does the “% Inhibition of PI3K p85 mRNA levels” value read?
**A.** 0%

**Q.** “27981 (antisense GTAAGTCCAGGAGATAGC; DNA, all phosphorothioate, methylation of C not given here) [compound 27981]” was tested. Which “% Inhibition of PI3K p85 mRNA levels” value did it give?
**A.** 14%

**Q.** Which “% Inhibition of PI3K p85 mRNA levels” value does the source give for “28004 (antisense ACATTGAGGGAGTCGTTG; DNA, all phosphorothioate, methylation of C not given here) [compound 28004]” here?
**A.** 0%

**Q.** How did the “% Inhibition of PI3K p85 mRNA levels” value turn out when “27999 (antisense CTTTGTTTCGGTTGCTGC; DNA, all phosphorothioate, methylation of C not given here) [compound 27999]” was run?
**A.** 36%

**Q.** With “27984 (antisense GGCTGCTGAGAATCTGAA; DNA, all phosphorothioate, methylation of C not given here) [compound 27984]” as the substance, how does the “% Inhibition of PI3K p85 mRNA levels” value read?
**A.** 22%

**Q.** Which “% Inhibition of PI3K p85 mRNA levels” value does the source give for “28015 (antisense AACTGAAATAACAACTTA; DNA, all phosphorothioate, methylation of C not given here) [compound 28015]” here?
**A.** 6%

**Q.** “27994 (antisense TTCAAGTCTTCTTCCAAT; DNA, all phosphorothioate, methylation of C not given here) [compound 27994]” was tested. Which “% Inhibition of PI3K p85 mRNA levels” value did it give?
**A.** 15%

**Q.** For “28006 (antisense ATCAGACTGGAGAGGAGC; DNA, all phosphorothioate, methylation of C not given here) [compound 28006]”, which “% Inhibition of PI3K p85 mRNA levels” value is on record?
**A.** 27%

**Q.** Which “% Inhibition of PI3K p85 mRNA levels” value does the source give for “27982 (antisense ATTTCACTGTAAACGGCT; DNA, all phosphorothioate, methylation of C not given here) [compound 27982]” here?
**A.** 19%

**Q.** Which “% Inhibition of PI3K p85 mRNA levels” value does the source give for “28014 (antisense CCTTCAGCAAAACAAAAC; DNA, all phosphorothioate, methylation of C not given here) [compound 28014]” here?
**A.** 24%

**Q.** “28001 (antisense CCACCACTACAGAGCAGG; DNA, all phosphorothioate, methylation of C not given here) [compound 28001]” was tested. Which “% Inhibition of PI3K p85 mRNA levels” value did it give?
**A.** 0%

**Q.** For “28012 (antisense ATTCTCCCAAAGCGTCCC; DNA, all phosphorothioate, methylation of C not given here) [compound 28012]”, which “% Inhibition of PI3K p85 mRNA levels” value is on record?
**A.** 19%

**Q.** Which “% Inhibition of PI3K p85 mRNA levels” value does the source give for “27995 (antisense ATTGGTCTCTCGTCTTTC; DNA, all phosphorothioate, methylation of C not given here) [compound 27995]” here?
**A.** 0%

**Q.** How did the “% Inhibition of PI3K p85 mRNA levels” value turn out when “27978 (antisense GCTTCCTGTCCATCACTG; DNA, all phosphorothioate, methylation of C not given here) [compound 27978]” was run?
**A.** 29%

**Q.** For “27998 (antisense GTCTTCAGTGTTTTCATT; DNA, all phosphorothioate, methylation of C not given here) [compound 27998]”, which “% Inhibition of PI3K p85 mRNA levels” value is on record?
**A.** 0%
